According to patent US20060234373A1, “Treatment for diabetes” (priority 2002, published 2006):
Marks after values point to notes of the source that are not given here.

Assays:
[1] = system: isolated human islets; assay: β-cell population of isolated human islets maintained in culture; type: cell-based
Description: The purpose of this experiment was to determine whether treatment with EGF and gastrin can increase the β-cell population of human islets in vitro and by what mechanism. Islet cell preparations were isolated from human donor pancreases (n=5) and prepared according to the approved protocol used for preparation of human islets for islet cell transplantation (Lakey JRT et al (1999) Cell transplant 8:285-292, and Ricordi C. et al. (1988) Diabetes 37:413-420). Islet cells were seeded at a concentration of 1×10^6 cells per dish and cultured for 4 weeks in serum free-MEM medium alone or supplemented with EGF (0.3 μg/ml), gastrin (1.0 μg/ml), or EGF+gastrin in combination for 4 weeks and maintained in culture for an additional 4 weeks.

[2] = system: normal Wistar rats; assay: Pancreatic insulin content in normal rats treated with TGF-α and gastrin; type: in vivo, rat; conditions: 0.8 μg/day each i.p. for 10 days, mean±SEM
Description: Normal Wistar and Zucker rats were allowed normal chow ad libidum with free access to water and were acclimatized for one week prior to initiation of each study. Freshly prepared streptozotocin at a dose of 80 mg/kg body weight was administered by I.V. five to seven days after induction of diabetes, the rats were randomly allocated into groups for subsequent treatment. In examples 1-4, TGF-α and rat gastrin were reconstituted in sterile normal saline containing 0.1% BSA. According to the predetermined treatment schedule for different studies, each animal received a single, daily i.p. injection of either TGF-α or gastrin alone (4.0 μg/kg body weight) or as a 1:1 (w/w) combination (total 8.0 μg/kg) or PBS for a period of 10 days. […]
At the end of the study period (10 days), all animals were sacrificed and samples of pancreas taken as follows: five biopsy specimens (1-2 mg) of pancreatic tissue were taken from separate representative sites in each rat pancreas and immediately snap frozen in liquid nitrogen for analysis of insulin content. […] Pancreatic insulin content values were corrected according to protein content and finally expressed as μg insulin/mg pancreatic protein. All values calculated as mean±SEM and statistical significance evaluated using Student's 2-sample t-test.

Substance	β-cell mass change ([1]; after 4 weeks culture, EGF 0.3 μg/ml, gastrin 1.0 μg/ml, medium alone −60%) [%]	induction of PDX-1 expression on CK19+ ductal cells ([1]; human islets in culture)	Pancreatic Insulin Content [2]
Gastrin	−1	mainly responsible for induction of PDX-1 expression	51.4 +/− 14.0** μg insulin/mg protein
TGF-α: recombinant Human TGF-α, an EGF receptor ligand			30.4 +/− 7.4* μg insulin/mg protein
